According to ChEMBL document CHEMBL1201862, “PubChem BioAssay data set” (2004):
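Protocol summary: plate cells (96-well), add compound at 5 concentrations, incubate 48 h, interpolate endpoints linearly. At the GI50, growth is halved.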 Activity calls are given as the source filed them. No stated cut-off is given here; in the data, active = GI50 up to about 1.1 µM and inactive = higher.

Legend:
Assay in all cases: NCI tumour cell line growth inhibition, 48 h
RXF 393 = system: RXF 393
HOP-62 = system: HOP-62
HCT-116 = system: HCT-116
SR = system: SR
786-0 = system: 786-0
SK-MEL-5 = system: SK-MEL-5
Hs-578T = system: Hs-578T
A498 = system: A498
OVCAR-5 = system: OVCAR-5
SK-MEL-28 = system: SK-MEL-28
NCI-H226 = system: NCI-H226
HCC 2998 = system: HCC 2998
SK-MEL-2 = system: SK-MEL-2
HOP-92 = system: HOP-92
PC-3 = system: PC-3
NCI/ADR-RES = system: NCI/ADR-RES
DU-145 = system: DU-145
RPMI-8226 = system: RPMI-8226

## C=C1C(=O)O[C@@H]2C[C@@H](C)[C@@H]3C=CC(=O)[C@@]3(C)[C@@H](OC(=O)CCCC(=O)O[C@H]3[C@@H]4C(=C)C(=O)O[C@@H]4C[C@@H](C)[C@@H]4C=CC(=O)[C@]43C)[C@H]12
RXF 393
  GI50: 0.0187 µM (active)
HOP-62
  GI50: 1.04 µM (active)
HCT-116
  GI50: 0.0143 µM (active)
SR
  GI50: < 0.01 µM (active)
786-0
  GI50: 0.0171 µM (active)
SK-MEL-5
  GI50: 0.134 µM (active)
Hs-578T
  GI50: 0.104 µM (active)
A498
  GI50: 0.181 µM (active)
OVCAR-5
  GI50: 0.139 µM (active)
SK-MEL-28
  GI50: 0.0495 µM (active)
NCI-H226
  GI50: 0.505 µM (active)
HCC 2998
  GI50: 0.624 µM (active)
SK-MEL-2
  GI50: 0.152 µM (active)
HOP-92
  GI50: 0.034 µM (active)
PC-3
  GI50: 0.0931 µM (active)
NCI/ADR-RES
  GI50: 0.396 µM (active)
DU-145
  GI50: 0.28 µM (active)
RPMI-8226
  GI50: 0.0107 µM (active)

## CC(C)(N)CO[C@H]1C[C@H]2CC[C@@]1(C)C2(C)C
RXF 393
  GI50: 12.9 µM (inactive)
HOP-62
  GI50: 20 µM (inactive)
HCT-116
  GI50: 15.9 µM (inactive)
SR
  GI50: 11.9 µM (inactive)
786-0
  GI50: 16.2 µM (inactive)
SK-MEL-5
  GI50: 18.2 µM (inactive)
Hs-578T
  GI50: 27.5 µM (inactive)
A498
  GI50: 27.2 µM (inactive)
OVCAR-5
  GI50: 18.5 µM (inactive)
SK-MEL-28
  GI50: 12.3 µM (inactive)
NCI-H226
  GI50: 24.7 µM (inactive)
HCC 2998
  GI50: 2.11 µM (inactive)
SK-MEL-2
  GI50: 18.5 µM (inactive)
HOP-92
  GI50: 14.2 µM (inactive)
PC-3
  GI50: 27.1 µM (inactive)
NCI/ADR-RES
  GI50: 32.4 µM (inactive)
DU-145
  GI50: 25.9 µM (inactive)
RPMI-8226
  GI50: 15.7 µM (inactive)

## CC1=NN(c2nc(N)nc(/C(C#N)=C\c3csc([N+](=O)[O-])c3)n2)C(C)(C)C1
RXF 393
  GI50: 20.6 µM (inactive)
HOP-62
  GI50: 26.6 µM (inactive)
HCT-116
  GI50: 47.4 µM (inactive)
SR
  GI50: 51.1 µM (inactive)
786-0
  GI50: 17.6 µM (inactive)
SK-MEL-5
  GI50: 30.5 µM (inactive)
Hs-578T
  GI50: 22.5 µM (inactive)
A498
  GI50: > 100 µM (inactive)
OVCAR-5
  GI50: 34.7 µM (inactive)
SK-MEL-28
  GI50: 59 µM (inactive)
NCI-H226
  GI50: 25.8 µM (inactive)
HCC 2998
  GI50: 31.7 µM (inactive)
SK-MEL-2
  GI50: 28.9 µM (inactive)
HOP-92
  GI50: 54.7 µM (inactive)
PC-3
  GI50: 20.6 µM (inactive)
NCI/ADR-RES
  GI50: 27 µM (inactive)
DU-145
  GI50: 33.4 µM (inactive)
RPMI-8226
  GI50: 35.6 µM (inactive)

## COc1ccc(/C=C2\CN(C)C/C(=C\c3ccc(OC)cc3)C2=O)cc1
RXF 393
  GI50: > 100 µM (inactive)
HOP-62
  GI50: > 100 µM (inactive)
HCT-116
  GI50: > 100 µM (inactive)
SR
  GI50: > 100 µM (inactive)
786-0
  GI50: 28.6 µM (inactive)
SK-MEL-5
  GI50: 32.8 µM (inactive)
Hs-578T
  GI50: > 100 µM (inactive)
A498
  GI50: > 100 µM (inactive)
OVCAR-5
  GI50: > 100 µM (inactive)
SK-MEL-28
  GI50: > 100 µM (inactive)
NCI-H226
  GI50: > 100 µM (inactive)
HCC 2998
  GI50: > 100 µM (inactive)
SK-MEL-2
  GI50: > 100 µM (inactive)
HOP-92
  GI50: > 100 µM (inactive)
PC-3
  GI50: > 100 µM (inactive)
NCI/ADR-RES
  GI50: > 100 µM (inactive)
DU-145
  GI50: > 100 µM (inactive)
RPMI-8226
  GI50: > 100 µM (inactive)

## COc1ccc(SC(C)(SC)c2ccccn2)c(OC)n1 (stereo unspecified)
RXF 393
  GI50: > 100 µM (inactive)
HOP-62
  GI50: > 100 µM (inactive)
HCT-116
  GI50: 48.3 µM (inactive)
SR
  GI50: 47.2 µM (inactive)
786-0
  GI50: 66.7 µM (inactive)
SK-MEL-5
  GI50: 37.4 µM (inactive)
Hs-578T
  GI50: 91.2 µM (inactive)
A498
  GI50: 53.3 µM (inactive)
OVCAR-5
  GI50: > 100 µM (inactive)
SK-MEL-28
  GI50: > 100 µM (inactive)
NCI-H226
  GI50: 42.5 µM (inactive)
HCC 2998
  GI50: > 100 µM (inactive)
SK-MEL-2
  GI50: 30.8 µM (inactive)
HOP-92
  GI50: 70 µM (inactive)
PC-3
  GI50: 76.2 µM (inactive)
NCI/ADR-RES
  GI50: 53.6 µM (inactive)
DU-145
  GI50: > 100 µM (inactive)
RPMI-8226
  GI50: 23.3 µM (inactive)

## CCOC(=O)C#Cc1cccc(C#CC(=O)OCC)c1
RXF 393
  GI50: 5.31 µM (inactive)
HOP-62
  GI50: 5.69 µM (inactive)
HCT-116
  GI50: 2.37 µM (inactive)
SR
  GI50: 0.506 µM (active)
786-0
  GI50: 4.47 µM (inactive)
SK-MEL-5
  GI50: 4.25 µM (inactive)
Hs-578T
  GI50: 9.55 µM (inactive)
A498
  GI50: 12.5 µM (inactive)
OVCAR-5
  GI50: 1.14 µM (inactive)
SK-MEL-28
  GI50: 5.33 µM (inactive)
NCI-H226
  GI50: 6.58 µM (inactive)
HCC 2998
  GI50: 0.624 µM (active)
SK-MEL-2
  GI50: 2.19 µM (inactive)
HOP-92
  GI50: 5.87 µM (inactive)
PC-3
  GI50: 6.21 µM (inactive)
NCI/ADR-RES
  GI50: 6.05 µM (inactive)
DU-145
  GI50: 6.52 µM (inactive)
RPMI-8226
  GI50: 4.71 µM (inactive)

## C=CCCCCCCCCCOC1C=CC(OC(C)=O)C(COC(C)=O)O1 (stereo unspecified)
RXF 393
  GI50: > 100 µM (inactive)
HOP-62
  GI50: 83.8 µM (inactive)
HCT-116
  GI50: 53.2 µM (inactive)
SR
  GI50: 32.7 µM (inactive)
786-0
  GI50: 67.8 µM (inactive)
SK-MEL-5
  GI50: 31.6 µM (inactive)
Hs-578T
  GI50: 28.9 µM (inactive)
A498
  GI50: > 100 µM (inactive)
OVCAR-5
  GI50: > 100 µM (inactive)
SK-MEL-28
  GI50: > 100 µM (inactive)
NCI-H226
  GI50: > 100 µM (inactive)
HCC 2998
  GI50: 39.8 µM (inactive)
SK-MEL-2
  GI50: 38.3 µM (inactive)
HOP-92
  GI50: 58.2 µM (inactive)
PC-3
  GI50: 32 µM (inactive)
NCI/ADR-RES
  GI50: 41.4 µM (inactive)
DU-145
  GI50: > 100 µM (inactive)
RPMI-8226
  GI50: 13.2 µM (inactive)
